# Laboratory results as given in patent publication US6130239A, “4-Alkenyl- and 4-alkynyloxindoles” (Hoffmann-La Roche Inc., priority 1999, dated 2000).
# Structures can show the parent of a compound that is named as a salt.
# Molecular target: T1, Cyclin E/CDK2 (Homo sapiens, UniProt P24941)
# T1 construct: made in house; host or cells: insect cells
# Experiment: CDK2 FlashPlate Assay (inhibition of Rb phosphorylation by Cyclin E/CDK2)
# Assay type: biochemical
# Settings: Table IA; recombinant human Cyclin E/CDK2, Rb substrate, 25 minutes room temperature
row,IC50 [µM],Structure (SMILES)
1,< 4,"COC(=O)NCC#Cc1cccc2c1/C(=C/c1[nH]ccc1OC)C(=O)N2 [LL, (Z)-[3-[2,3-Dihydro-3-[(3-methoxy-1H-pyrrol-2-yl)methylene]-2-oxo-1H-indol-4-yl]-2-propynyl]carbamic acid methyl ester]"
2,< 4,"COC(=O)CCCC#Cc1cccc2c1/C(=C/c1[nH]ccc1OC)C(=O)N2 [E, (Z)-6-[2,3-Dihydro-3-[(3-methoxy-1H-pyrrol-2-yl)methylene]-2-oxo-1H-indol-4-yl]-5-hexynoic acid methyl ester]"
3,< 4,"COc1cc[nH]c1/C=C1\C(=O)Nc2cccc(C#CCNCc3ccccc3)c21 [KK, (Z)-1,3-Dihydro-3-[(3-methoxy-1H-pyrrol-2-yl)methylene]-4-[3-(N-phenylmethylamino)-1-propynyl]-2H-indol-2-one]"
4,< 4,"COCC#Cc1cccc2c1/C(=C/c1[nH]ccc1OC)C(=O)N2 [X, (Z)-1,3-Dihydro-4-(3-methoxy-1-propynyl)-3-[(3-methoxy-1H-pyrrol-2-yl)methylene]-2H-indol-2-one]"
5,< 4,"COc1cc[nH]c1/C=C1\C(=O)Nc2ccc(NC(=O)c3ccncc3)c(C#CCO)c21 [DD, (Z)-N-[2,3-Dihydro-4-(3-hydroxy-1-propynyl)-3-[(3-methoxy-1H-pyrrol-2-yl)methylene]-2-oxo-1H-indol-5-yl]-4-pyridinecarboxamide]"
6,< 4,"COc1cc[nH]c1/C=C1\C(=O)Nc2cccc(C#CCCC(=O)O)c21 [H, (Z)-5-[2,3-Dihydro-3-[(3-methoxy-1H-pyrrol-2-yl)methylene]-2-oxo-1H-indol-4-yl]-4-pentynoic acid]"
7,< 4,"COc1cc[nH]c1/C=C1\C(=O)Nc2cccc(C#CC3(O)CCCCC3)c21 [M, (Z)-1,3-Dihydro-4-[(1-hydroxycyclohexyl)ethynyl]-3-[(3-methoxy-1H-pyrrol-2-yl)methylene]-2H-indol-2-one]"
8,< 4,"COc1cc[nH]c1/C=C1\C(=O)Nc2ccc(N)c(C#CCO)c21 [Compound BB, (Z)-5-Amino-1,3-dihydro-4-(3-hydroxy-1-propynyl)-3-[(3-methoxy-1H-pyrrol-2-yl)methylene]-2H-indol-2-one]"
9,< 4,"COC(=O)CCC#Cc1cccc2c1/C(=C/c1[nH]ccc1OC)C(=O)N2 [F, (Z)-5-[2,3-Dihydro-3-[(3-methoxy-1H-pyrrol-2-yl)methylene]-2-oxo-1H-indol-4-yl]-4-pentynoic acid methyl ester]"
10,< 4,"COC(=O)CCC#Cc1c(N)ccc2c1/C(=C/c1[nH]ccc1OC)C(=O)N2 [FF, (Z)-5-[5-Amino-2,3-dihydro-3-[(3-methoxy-1H-pyrrol-2-yl)methylene]-2-oxo-1H-indol-4-yl]-4-pentynoic acid methyl ester]"
11,< 4,"CCCCCC(O)C#Cc1cccc2c1/C(=C/c1[nH]ccc1OC)C(=O)N2 (racemic) [Q, rac-(Z)-1,3-Dihydro-4-(3-hydroxy-1-octynyl)-3-[(3-methoxy-1H-pyrrol-2-yl)methylene]-2H-indol-2-one]"
12,< 4,"COc1cc[nH]c1/C=C1\C(=O)Nc2ccc(NC(=O)Cc3cccs3)c(C#CCCC(=O)O)c21 [HH, (Z)-5-[2,3-Dihydro-3-[(3-methoxy-1H-pyrrol-2-yl)methylene]-2-oxo-5-[(2-thienylacetyl)amino]-1H-indol-4-yl]-4-pentynoic acid]"
13,< 4,"COc1cc[nH]c1/C=C1\C(=O)Nc2cccc(C#CCN)c21 [II, (Z)-4-(3-Amino-1-propynyl)-1,3-dihydro-3-[(3-methoxy-1H-pyrrol-2-yl)methylene]-2H-indol-2-one trifluoroacetate salt]"

# Same assay, conditions: Table IB; concentration ≤1.0 μM
row,inhibition at 1 µM [%],Structure (SMILES)
1,> 60,"COC(=O)CCC#Cc1c([N+](=O)[O-])ccc2c1/C(=C/c1[nH]ccc1OC)C(=O)N2 [EE, (Z)-5-[2,3-Dihydro-3-[(3-methoxy-1H-pyrrol-2-yl)methylene]-5-nitro-2-oxo-1H-indol-4-yl]-4-pentynoic acid methyl ester]"
